According to patent US6585963B1, “Nail compositions and methods of administering same” (Watson Pharmaceuticals, Inc., priority 2001, dated 2003):

Experiment: In vitro human cadaver nail flux study (modified Franz permeation cells)
Assay type: in vitro ADME
Description: The general methods for determining the in vitro nail flux are known in the art. See, for example, U.S. Pat. No. 5,696,164, and references cited therein.
In vitro human cadaver nail flux studies were conducted using modified Franz non-Jacketed permeation cells. The temperature of the nail surface was maintained at 32° C. by placing the cells in a circulating water bath positioned over a stirring module. Human fingernails or toenails were stored under frozen conditions in 0.02% (w/v) sodium azide solution or selected receiver medium. Nails that were greater than 1 cm^2 in area were used for the flux studies. Nails with dorsal side facing the donor compartment were sandwiched between two layers of a closed cell polyethylene foam film. Annular ring of 2.38 cm outer diameter and […] was cut from the backinig film. The area of the donut hole (0.97 cm^2) is large enough to provide complete contact with the receiver media. The purpose of the foam backing film was to prevent any leakage of receiver medium from the cell assembly. The nails were allowed to hydrate at 32° C. overnight with 0.02% (w/v) sodium azide solution in the receiver compartment.
The following morning, nail lacquer sufficient to cover the nail surface was placed onto the dorsal side of the nail. Alternatively, a fixed amount of the lacquer can also be used. Each nail was then loaded between the donor and receiver compartments of a diffusion cell, with the ventral side of nail facing the receiver compartment, and clamped in place. The duration of nail flux and retention study varied from 3 days to 3 weeks. At predetermined sampling intervals, the entire contents of the receiver compartment were collected for drug quantitation and the receiver compartment was filled with fresh receiver solution, taking care to eliminate any air bubbles at the skin/solution interface.
The cumulative amount of drug permeated per unit area at any time t (Qt, μg/cm^2) was determined as follows: [formula] […]

| enhancement of nail flux of fluconazole (Example I, using 3-5% triacetin versus formulation without enhancer) | increase in flux rate of fluconazole by pretreatment (Example V, pretreatment with an N-methyl-pyrrolidone composition versus control solution) | increase in flux rate (Examples II and III, 5% enhancer in Gantrez ES-335/FLC versus formulation without enhancer) | SMILES |
| --- | --- | --- | --- |
| about 100% | about 70% | – | OC(Cn1cncn1)(Cn1cncn1)c1ccc(F)cc1F [fluconazole, Fluconazole] |
| – | – | about 40% | CCCCCCCCCCCC(=O)N(CCO)CCO [L-DEA, Lauramide Diethanolamine (DEA)] |
